Key:
[1] = tested on: HCT116 cells; test: Measurement of growth inhibitory activity using HCT116 cell; type: cell-based; conditions: Homo sapiens, HCT-116, 72 h, 1 μM compound, 3 days, CellTiter-Glo, read-out: Rate of inhibition of cell growth at compound concentration of 1 μM
Experimental: Measurement of Growth Inhibitory Activity Using HCT116 Cell
Each compound was evaluated for its growth inhibitory activity against HCT116 cells (ATCC) by the following method: the HCT116 cells were inoculated at 900 cells/40 μL/well to a 384-well white plate (Greiner Bio-one) and maintained in an assay medium (RPMI medium (Wako Pure Chemical Industries, Ltd.) containing 2% fetal bovine serum, 50 units/mL penicillin and 50 μg/mL streptomycin (Invitrogen Corp.)). On the next day, the test compound dissolved in dimethyl sulfoxide (DMSO) was dispensed to the plate using TECAN D300 digital dispenser (Tecan Trading AG). Then, the concentration of DMSO in the medium was adjusted to 0.1% by the addition of DMSO. The HCT116 cells supplemented with the compound were incubated at 37° C. in a 5% CO2 environment (test compound addition group).
Also, the same reaction as above was carried out without the addition of the test compound (test compound non-addition group).
Further, the same reaction as above was carried out on condition that neither the HCT116 cells nor the test compound were added (control group).
After 3 days, 20 μL of CellTiter-Glo reagent (Promega Corp.) was added to each well, and the mixture was stirred for 10 minutes. Then, the light emission of each well was measured using ARVO MX1420 (PerkinElmer, Inc.).
The rate of inhibition of HCT116 cell growth (%) was determined according to the following calculation expression:
Rate of inhibition of cell growth=(1−(Light emission of the test compound addition group−Light emission of the control group)/(Light emission of the test compound non-addition group−Light emission of the control group))×100

[2] = target: T1, human SCD1 (Homo sapiens, UniProt O00767); test: Measurement of human SCD1 binding activity (inhibition of binding of radiolabeled compound Z); conditions: human SCD1-expressing membrane fraction, compound Z radioligand; for inhibition at 1 µM: 1 μM compound, read-out: Rate of inhibition of SCD1 binding (%) at compound concentration of 1 μM
T1 construct: made in house; host or cells: High Five insect cells (baculovirus, pFastBac1/hSCD1); membrane fraction
T1 sequence (O00767 1-359): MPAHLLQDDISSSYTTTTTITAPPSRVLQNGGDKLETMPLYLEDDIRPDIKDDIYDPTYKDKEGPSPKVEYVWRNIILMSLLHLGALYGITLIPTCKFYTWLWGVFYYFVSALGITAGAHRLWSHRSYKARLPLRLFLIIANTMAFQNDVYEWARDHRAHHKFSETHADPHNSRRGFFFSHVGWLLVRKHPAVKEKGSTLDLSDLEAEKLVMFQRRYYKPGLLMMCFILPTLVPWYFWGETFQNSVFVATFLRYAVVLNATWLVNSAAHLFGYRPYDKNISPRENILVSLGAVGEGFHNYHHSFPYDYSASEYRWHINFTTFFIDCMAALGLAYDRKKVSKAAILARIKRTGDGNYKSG
Experimental: Measurement of Human SCD1 Binding Activity Using (5-(6-(1′H-spiro[1-benzofuran-3,3′-pyrrolidin]-1′-yl)pyridazin-3-yl)-1,2,4-oxadiazol-3-yl) [^3H2]methanol
The SCD1 binding activity of the compound of the present invention was measured as the activity of inhibiting the binding of (5-(6-(1′H-spiro[1-benzofuran-3,3′-pyrrolidin]-1′-yl)pyridazin-3-yl)-1,2,4-oxadiazol-3-yl)[^3H2]methanol (radiolabeled form of the compound disclosed as a SCD inhibitor in Example 157 of International Publication No. WO2008/096746; in the present specification, also referred to as compound Z) to SCD1.
Specifically, first, Human liver cDNA library (Takara Bio Inc.) was cloned as a template by PCR using KOD-Plus-(Toyobo Co., Ltd.) DNA polymerase. The primers used were 5′-[…]-3′ and 5′-[…]-3′. The amplification fragment was temporarily transferred to a pCR Blunt II-TOPO vector using Zero Blunt PCR Cloning Kit (Life Technologies, Inc.) to obtain pCR Blunt II-TOPO/hSCD1. A fragment obtained by the cleavage of this pCR Blunt II-TOPO/hSCD1 with BamHI and NotI was transferred to pFastBac1 (Life Technologies, Inc.) to construct a recombinant plasmid pFastBac1/hSCD1 for hSCD1 insect cell expression systems.
Baculovirus was prepared using the pFastBac1/hSCD1 plasmid according to the protocol of Bac-to-Bac Baculovirus Expression System (Life Technologies, Inc.).
The insect cells for use in expression were High Five cells (Life Technologies, Inc.) subcultured in a PSFM-J1 medium (Wako Pure Chemical Industries, Ltd.) containing 5% FBS, 10 U/L heparin (Sigma-Aldrich Corp.) and 50 μg/mL gentamicin.
The High Five cells were inoculated at 0.8×10^6 cells/mL and cultured until the following day. When the cell density reached 2.0×10^6 cells/mL, Ammonium Iron(III) Sulfate 12-Water (Wako Pure Chemical Industries, Ltd.) was added thereto at a final concentration of 10 μM. The cells were further infected with the baculovirus and cultured for 3 days.
After the completion of the culture, the culture solution was centrifuged (4° C., 4,000 rpm, […]) and frozen at −80° C. to obtain hSCD1-expressing insect cells. Next, the frozen hSCD1-expressing insect cells were suspended in buffer A (50 mM Tris-HCl (pH 7.5) containing 250 mM sucrose and cOmplete Protease Inhibitor Cocktail Tablets (F. Hoffmann-La Roche, Ltd.)), and the cells were disrupted (4° C., 20,000 rpm, 20 sec×2) using a POLYTORON homogenizer (Central Scientific Commerce, Inc.).
This cell lysate was centrifuged (4° C., 850×g, […]), and the supernatant was further ultracentrifuged (4° C., 186,000×g, 60 min). The supernatant was discarded, and buffer A was added to the precipitate. The resultant was suspended using POLYTRON (4° C., 10,000 rpm, 10 sec×2) and passed through a 40-μm cell strainer to prepare a human SCD1-expressing membrane fraction (hereinafter, also simply referred to as human SCD1). The protein concentration was measured using BCA Protein Assay Kit (Thermo Fisher Scientific, Inc.) with BSA used as standards.
The obtained primary dilution was diluted 250-fold by the addition of an assay buffer (10 mM Tris-HCl, pH 7.5, 100 mM KCl, 10 mM NaF, 3 mM MgCl2, 0.005% Tween 20, 1 mM GSH) to obtain a secondary dilution. The human SCD1 diluted using an assay buffer was dispensed at 100 μL/well (containing 0.2 μg of the protein) to a polypropylene 96-well plate, and then, the secondary dilution of the compound was added thereto at 50 μL/well. Further, a solution of 12 nM compound Z diluted with an assay buffer was added thereto at 50 μL/well, and the plate was left standing at room temperature for 2 hours. Then, the contents in each well were transferred to each well of UniFilter-96 GF/C PEI coated plate (PerkinElmer, Inc.) wetted with a washing buffer, followed by washing five times with a washing buffer (10 mM Tris-HCl, pH 7.5). After drying of the filter plate, Microscint-O (PerkinElmer, Inc.) was added thereto at 25 μL/well, and the obtained radioactivity was measured using TopCount (PerkinElmer, Inc.). […]

| Compound | inhibition at 1 µM [2] | inhibition at 0.1 µM ([2]; 0.1 μM compound, read-out: Rate of inhibition of SCD1 binding at compound concentration of 0.1 μM) | inhibition at 1 µM [1] |
| --- | --- | --- | --- |
| N#CC1(c2ccc(S(F)(F)(F)(F)F)cc2)CCN(c2ccc(-c3nnc(CO)o3)nn2)CC1 [Example 58, 1-(6-(5-(Hydroxymethyl)-1,3,4-oxadiazol-2-yl)pyridazin-3-yl)-4-(4-(pentafluorosulfanyl)phenyl)piperidine-4-carbonitrile] | 89% | – | 88% |
| OCc1noc(-c2ccc(N3CCC(c4ccc(C(F)(F)F)cc4)(C(F)(F)F)CC3)nn2)n1 [Example 82, (5-(6-(4-(Trifluoromethyl)-4-(4-(trifluoromethyl)phenyl)piperidin-1-yl)pyridazin-3-yl)-1,2,4-oxadiazol-3-yl)methanol] | 99% | – | 89% |
| OCc1nnc(-c2ccc(N3CCC(c4ccc(C(F)(F)F)cc4)(C(F)(F)F)CC3)nn2)o1 [Example 84, (5-(6-(4-(Trifluoromethyl)-4-(4-(trifluoromethyl)phenyl)piperidin-1-yl)pyridazin-3-yl)-1,3,4-oxadiazol-2-yl)methanol] | 99% | – | 88% |
| COC1(c2ccc(S(F)(F)(F)(F)F)cc2)CCN(c2ccc(-c3nnc(CO)o3)nn2)CC1 [Example 93, (5-(6-(4-Methoxy-4-(4-(pentafluorosulfanyl)phenyl)piperidin-1-yl)pyridazin-3-yl)-1,3,4-oxadiazol-2-yl)methanol] | 98% | – | 85% |
| N#CC1(c2ccc(S(F)(F)(F)(F)F)cc2)CCN(c2ccc(-c3nc(CO)ns3)nn2)CC1 [Example 108, 1-(6-(3-(Hydroxymethyl)-1,2,4-thiadiazol-5-yl)pyridazin-3-yl)-4-(4-(pentafluorosulfanyl)phenyl)piperidine-4-carbonitrile] | 99% | – | 90% |
| N#CC1(c2ccc(S(F)(F)(F)(F)F)cc2)CCN(c2ccc(-c3nnc(CO)s3)nn2)CC1 [Example 109, 1-(6-(5-(Hydroxymethyl)-1,3,4-thiadiazol-2-yl)pyridazin-3-yl)-4-(4-(pentafluorosulfanyl)phenyl)piperidine-4-carbonitrile] | 87% | – | 88% |
| COC1(c2ccc(S(F)(F)(F)(F)F)cc2)CCN(c2ccc(-c3nc(CO)ns3)nn2)CC1 [Example 110, (5-(6-(4-Methoxy-4-(4-(pentafluorosulfanyl)phenyl)piperidin-1-yl)pyridazin-3-yl)-1,2,4-thiadiazol-3-yl)methanol] | 100% | – | 89% |

Continued, in another order:

| inhibition at 1 µM [2] | inhibition at 0.1 µM ([2]; 0.1 μM compound, read-out: Rate of inhibition of SCD1 binding at compound concentration of 0.1 μM) | Compound | inhibition at 1 µM [1] |
| --- | --- | --- | --- |
| – | 93% | COC1(c2ccc(S(F)(F)(F)(F)F)cc2)CCN(c2ccc(-c3nnc(CO)s3)nn2)CC1 [Example 111, (5-(6-(4-Methoxy-4-(4-(pentafluorosulfanyl)phenyl)piperidin-1-yl)pyridazin-3-yl)-1,3,4-thiadiazol-2-yl)methanol] | 86% |
| 99% | – | OCc1nsc(-c2ccc(N3CCC(c4ccc(C(F)(F)F)cc4)(C(F)(F)F)CC3)nn2)n1 [Example 112, (5-(6-(4-(Trifluoromethyl)-4-(4-(trifluoromethyl)phenyl)piperidin-1-yl)pyridazin-3-yl)-1,2,4-thiadiazol-3-yl)methanol] | 90% |
| 100% | – | OCc1nnc(-c2ccc(N3CCC(c4ccc(C(F)(F)F)cc4)(C(F)(F)F)CC3)nn2)s1 [Example 113, (5-(6-(4-(Trifluoromethyl)-4-(4-(trifluoromethyl)phenyl)piperidin-1-yl)pyridazin-3-yl)-1,3,4-thiadiazol-2-yl)methanol] | 84% |

Source: US20170015654A1, “PYRIDAZINE COMPOUND” (TAKEDA PHARMACEUTICAL COMPANY LIMITED, priority 2014, published 2017)
